According to patent US10010529B2, “Extended release pharmaceutical formulations with controlled impurity levels” (Ezra Pharma LLC, priority 2016, dated 2018):

Legend:
[1] = Compatibility study for valsartan related compound A (Impurity A), 2 weeks 60° C. closed glass vial; type: physicochemical
Description: Valsartan and valsartan solubilized in molten solubilizers as depicted in tables I and II respectively were subjected to compatibility studies at the following condition: • 2 weeks 60° C. closed glass vial Solubilized valsartan used for the study was prepared by melting the solubiliser/s (Kolliphor P 407, Kolliphor TPGS and combination thereof) in a beaker at water bath temperature 65° C. The drug was mixed with the molten solubiliser/s uniformly at water bath temperature 65° C. and the cooled mass was used in the studies. Levels of Impurity A were evaluated at the tabulated conditions as mentioned in Table III.

[2] = in vivo; cited from earlier work

Impurity A level, 2 Weeks 60° C. Closed glass Vial ([1]; 2 weeks 60° C., closed glass vial): 0.05 | generation of Valsartan R-isomer impurity (Impurity A), in words ([1]; conditions of the compatibility study): not generated | Impurity A level, Initial ([1]; initial): 0.03
SMILES: CCCCC(=O)N(Cc1ccc(-c2ccccc2-c2nnn[nH]2)cc1)[C@H](C(=O)O)C(C)C [Valsartan API, (S)—N-(1-oxopentyl)-N-[[2′-(1H-tetrazol-5-yl) [1,1′-biphenyl]-4-yl]methyl]-L-valine]
absolute bioavailability [2]: about 25%
